Experimental data: PubChem BioAssay AID248 (DTP/NCI, 2004)
“And” between values parts separate entries of the source, which are not always exact repeats. Equal values may be shown once. Inconclusive results and toxic doses are left out. Rule as the data show it: active = T/C of 150% or more; inactive = T/C below 125%.

System: L1210 leukemia ip in BDF1 mice, survival T/C
Assay: NCI In Vivo Anticancer Drug Screen. Data for tumor model L1210 Leukemia (intraperitoneal) in B6D2F1 (BDF1) mice
Conditions: endpoint: mean survival time, higher = longer survival
How it was run: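 Ratio derived from survival: compound-dosed mice over vehicle-dosed mice, all bearing a transplantable tumor.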

[1] = dose: 100.0 mg/kg/injection, schedule: Q04DX003 (ip), vehicle: saline
[2] = dose: 100.0 mg/kg/injection, schedule: Q04DX002 (ip), vehicle: Klucel (hydroxypropylcellulose) (HPC)
[3] = dose: 200.0 mg/kg/injection, schedule: Q04DX002 (ip), vehicle: Klucel (hydroxypropylcellulose) (HPC)
[4] = dose: 400.0 mg/kg/injection, schedule: Q04DX002 (ip), vehicle: Klucel (hydroxypropylcellulose) (HPC)
[5] = dose: 100.0 mg/kg/injection, schedule: Q01DX009 (ip), vehicle: Klucel (hydroxypropylcellulose) (HPC)
[6] = dose: 200.0 mg/kg/injection, schedule: Q01DX009 (ip), vehicle: Klucel (hydroxypropylcellulose) (HPC)
[7] = dose: 400.0 mg/kg/injection, schedule: Q01DX009 (ip), vehicle: Klucel (hydroxypropylcellulose) (HPC)
[8] = dose: 100.0 mg/kg/injection, schedule: Q01DX001 (ip), vehicle: saline
[9] = dose: 50.0 mg/kg/injection, schedule: Q01DX001 (ip), vehicle: saline
[10] = dose: 50.0 mg/kg/injection, schedule: Q04DX003 (ip), vehicle: saline with Tween-80
[11] = dose: 100.0 mg/kg/injection, schedule: Q04DX003 (ip), vehicle: saline with Tween-80

Measured: T/C

C/C(=N/N=C(N)N)C(F)(F)F
inactive: dose: 15.0 mg/kg/injection, schedule: Q01DX Z (ip), vehicle: saline 104 % of control | dose: 15.0 mg/kg/injection, schedule: Q01DX Z (oral), vehicle: saline 108 % of control | dose: 30.0 mg/kg/injection, schedule: Q01DX Z (ip), vehicle: saline 87 % of control | dose: 30.0 mg/kg/injection, schedule: Q01DX Z (oral), vehicle: saline 106 % of control

O=C1NCN(c2ccccc2)C12CCN(CCCS(=O)(=O)c1ccccc1)CC2
inactive: dose: 100.0 mg/kg/injection, schedule: Q01DX001 (ip), vehicle: Klucel (hydroxypropylcellulose) (HPC) 93 % of control | dose: 200.0 mg/kg/injection, schedule: Q01DX001 (ip), vehicle: Klucel (hydroxypropylcellulose) (HPC) 94 % of control | dose: 400.0 mg/kg/injection, schedule: Q01DX001 (ip), vehicle: Klucel (hydroxypropylcellulose) (HPC) 101 % of control

CNc1c([N+](=O)[O-])ncn1C
inactive: dose: 12.5 mg/kg/injection, schedule: Q04DX003 (ip), vehicle: saline 98 % of control | dose: 25.0 mg/kg/injection, schedule: Q04DX003 (ip), vehicle: saline 94 % of control | dose: 50.0 mg/kg/injection, schedule: Q04DX003 (ip), vehicle: saline 91 % of control | [1] 97 % of control

CC(C)C(C(N)=O)N1C(=O)C2C3CCC(C3)C2C1=O (stereo not drawn)
inactive: [1] 98 % of control | dose: 200.0 mg/kg/injection, schedule: Q04DX003 (ip), vehicle: saline 95 % of control | dose: 400.0 mg/kg/injection, schedule: Q04DX003 (ip), vehicle: saline 107 % of control

COC(=O)N/N=C/c1cc(OC)ccc1O
inactive: [2] 97 % of control | [3] 114 % of control | [4] 104 % of control

O=S(=O)(c1ccccc1)S(=O)(=O)c1ccccc1
inactive: [5] 107 % of control | [2] 105 % of control | [6] 88 % of control | [3] 86 % of control | [7] 96 % of control | [4] 90 % of control

Oc1ccccc1/C=N/Nc1c2ccccc2nc2ccccc12
inactive: [8] 103 % of control | dose: 400.0 mg/kg/injection, schedule: Q01DX001 (ip), vehicle: saline 93 % of control

Cn1cc(NC(=O)c2cc(NC(=O)CN=C(N)N)cn2C)cc1C(=O)NCCC(=N)N
inactive: dose: 6.3 mg/kg/injection, schedule: Q01DX Z (ip), vehicle: saline 88 % of control | dose: 12.5 mg/kg/injection, schedule: Q01DX Z (ip), vehicle: saline 92 % of control

Cc1cnc2cccc(C)c2c1Cl
inactive: [9] 101 % of control | [8] 97 % of control | dose: 200.0 mg/kg/injection, schedule: Q01DX001 (ip), vehicle: saline 95 % of control

Cc1ccc(S(=O)(=O)OCC2C3CCC(C3=O)C2COS(=O)(=O)c2ccc(C)cc2)cc1 (stereo not drawn)
inactive: [10] 98 % of control | [11] 96 % of control and 106 % of control | dose: 200.0 mg/kg/injection, schedule: Q04DX003 (ip), vehicle: saline with Tween-80 98 % of control | dose: 400.0 mg/kg/injection, schedule: Q04DX003 (ip), vehicle: saline with Tween-80 86 % of control

COc1cc(/C=N/NC(=O)c2ccccc2Cl)ccc1O
inactive: dose: 12.5 mg/kg/injection, schedule: Q01DX009 (ip), vehicle: saline with Tween-80 91 % of control | dose: 25.0 mg/kg/injection, schedule: Q01DX009 (ip), vehicle: saline with Tween-80 88 % of control | dose: 50.0 mg/kg/injection, schedule: Q01DX009 (ip), vehicle: saline with Tween-80 95 % of control and 97 % of control

CCCC(=O)Nc1ccc(N=Nc2ccccc2)cc1
inactive: dose: 25.0 mg/kg/injection, schedule: Q01DX009 (ip), vehicle: Klucel (hydroxypropylcellulose) (HPC) 100 % of control | dose: 50.0 mg/kg/injection, schedule: Q01DX009 (ip), vehicle: Klucel (hydroxypropylcellulose) (HPC) 92 % of control | [5] 94 % of control and 96 % of control | [6] 95 % of control

CC(=O)Nc1ccc(NC(=O)Nc2cccc(Cl)c2C)cc1
inactive: [5] 89 % of control | [6] 89 % of control | [7] 91 % of control

O=C(O)c1cc(-c2ccc(Cl)cc2)nc2c(Cl)cccc12
inactive: dose: 20.0 mg/kg/injection, schedule: Q01DX009 (ip), vehicle: Klucel (hydroxypropylcellulose) (HPC) 95 % of control | dose: 20.0 mg/kg/injection, schedule: Q04DX003 (ip), vehicle: Klucel (hydroxypropylcellulose) (HPC) 107 % of control | dose: 40.0 mg/kg/injection, schedule: Q01DX009 (ip), vehicle: Klucel (hydroxypropylcellulose) (HPC) 103 % of control | dose: 40.0 mg/kg/injection, schedule: Q04DX003 (ip), vehicle: Klucel (hydroxypropylcellulose) (HPC) 100 % of control | dose: 80.0 mg/kg/injection, schedule: Q01DX009 (ip), vehicle: Klucel (hydroxypropylcellulose) (HPC) 108 % of control | dose: 80.0 mg/kg/injection, schedule: Q04DX003 (ip), vehicle: Klucel (hydroxypropylcellulose) (HPC) 97 % of control

Cc1ccc2nc(N=C(N)N)[nH]c2c1
inactive: dose: 75.0 mg/kg/injection, schedule: Q01DX001 (ip), vehicle: saline 93 % of control | dose: 150.0 mg/kg/injection, schedule: Q01DX001 (ip), vehicle: saline 94 % of control

COc1cccc2c1CCC1=C2CCC2CC(=O)CCC12C (stereo not drawn)
inactive: dose: 100.0 mg/kg/injection, schedule: Q01DX001 (sc), vehicle: steriod suspending solution 98 % of control | dose: 200.0 mg/kg/injection, schedule: Q01DX001 (sc), vehicle: steriod suspending solution 100 % of control | dose: 400.0 mg/kg/injection, schedule: Q01DX001 (sc), vehicle: steriod suspending solution 100 % of control

C[N+](C)(C)CCC[N+](C)(C)CCN1C(=O)c2cccc3cccc(c23)C1=O
inactive: dose: 6.25 mg/kg/injection, schedule: Q01DX001 (ip), vehicle: saline 103 % of control | dose: 12.5 mg/kg/injection, schedule: Q01DX001 (ip), vehicle: saline 103 % of control | dose: 25.0 mg/kg/injection, schedule: Q01DX001 (ip), vehicle: saline 103 % of control | [9] 101 % of control

NC(=O)c1cc([N+](=O)[O-])ccc1N
inactive: dose: 100.0 mg/kg/injection, schedule: Q01DX001 (ip), vehicle: other 103 % of control | dose: 100.0 mg/kg/injection, schedule: Q04DX003 (ip), vehicle: saline sonified 103 % of control | dose: 200.0 mg/kg/injection, schedule: Q01DX001 (ip), vehicle: other 112 % of control | dose: 200.0 mg/kg/injection, schedule: Q04DX003 (ip), vehicle: saline sonified 105 % of control | dose: 400.0 mg/kg/injection, schedule: Q01DX001 (ip), vehicle: other 95 % of control | dose: 400.0 mg/kg/injection, schedule: Q04DX003 (ip), vehicle: saline sonified 111 % of control
